# Measurements: ChEMBL document CHEMBL5346880, “ATP-competitive inhibitors of human DNA topoisomerase IIα with improved antiproliferative activity based on N-phenylpyrrolamide scaffold” (Eur J Med Chem, 2023)
# Columns and labels:
# [1] = Metabolic stability in rat liver S9 fraction assessed as half life at 100 uM measured upto 120 mins in presence of NADPH by HPLC analysis; assay type: ADME, subcellular
# [2] = molecular target: T1, DNA topoisomerase 2-alpha (Homo sapiens, UniProt P11388); experiment: Inhibition of human DNA topoisomerase 2 alpha assessed as relaxation of supercoiled plasmid pNO1 DNA incubated for 30 mins by fluorescence based analysis
# [3] = Thermodynamic aqueous solubility of compound in PBS buffer at pH 7.4 at 25 degreeC measured after 24 hrs by UPLC analysis; assay type: physicochemical; conditions: read-out: Therm_solubility
# K562 = experiment: Cytotoxicity against human K562 cells assessed as reduction in cell viability at 10 uM by MTT assay; assay type: functional, cell-based
# HepG2 = experiment: cells; conditions: Homo sapiens, HepG2, 72 h
# Description: Cytotoxicity against human HepG2 cells assessed as inhibition of cell growth incubated for 72 hrs by MTS assay
# [4] = Selectivity index, ratio of IC50 for HEK293 cells to IC50 for human HepG2 cells; assay type: toxicity; conditions: HEK293 cells versus HepG2 cells, read-out: Ratio IC50
# MCF7 = experiment: cells; conditions: Homo sapiens, MCF7, 72 h
# Description: Cytotoxicity against human MCF7 cells assessed as inhibition of cell growth incubated for 72 hrs by MTS assay
# [5] = Cytotoxicity against HEK293 cells assessed as inhibition of cell growth incubated for 72 hrs by MTS assay; assay type: toxicity, cell-based; conditions: human
# [6] = Selectivity index, ratio of IC50 for HEK293 cells to IC50 for human MCF7 cells; assay type: toxicity; conditions: HEK293 cells versus MCF7 cells, read-out: Ratio IC50
# [7] = molecular target: T1, DNA topoisomerase 2-alpha; experiment: Inhibition of human DNA topoisomerase 2 alpha assessed as ATP hydrolysis measured for 30 mins by absorbance based assay
# DNA topoisomerase 1 = molecular target: T2, DNA topoisomerase 1 (Homo sapiens, UniProt P11387); experiment: Inhibition of human DNA Topoisomerase 1 assessed as relaxation of supercoiled plasmid pBR322 DNA incubated for 30 mins by ethidium bromide staining based agarose gel electrophoresis
# T2 sequence (P11387 whole entry): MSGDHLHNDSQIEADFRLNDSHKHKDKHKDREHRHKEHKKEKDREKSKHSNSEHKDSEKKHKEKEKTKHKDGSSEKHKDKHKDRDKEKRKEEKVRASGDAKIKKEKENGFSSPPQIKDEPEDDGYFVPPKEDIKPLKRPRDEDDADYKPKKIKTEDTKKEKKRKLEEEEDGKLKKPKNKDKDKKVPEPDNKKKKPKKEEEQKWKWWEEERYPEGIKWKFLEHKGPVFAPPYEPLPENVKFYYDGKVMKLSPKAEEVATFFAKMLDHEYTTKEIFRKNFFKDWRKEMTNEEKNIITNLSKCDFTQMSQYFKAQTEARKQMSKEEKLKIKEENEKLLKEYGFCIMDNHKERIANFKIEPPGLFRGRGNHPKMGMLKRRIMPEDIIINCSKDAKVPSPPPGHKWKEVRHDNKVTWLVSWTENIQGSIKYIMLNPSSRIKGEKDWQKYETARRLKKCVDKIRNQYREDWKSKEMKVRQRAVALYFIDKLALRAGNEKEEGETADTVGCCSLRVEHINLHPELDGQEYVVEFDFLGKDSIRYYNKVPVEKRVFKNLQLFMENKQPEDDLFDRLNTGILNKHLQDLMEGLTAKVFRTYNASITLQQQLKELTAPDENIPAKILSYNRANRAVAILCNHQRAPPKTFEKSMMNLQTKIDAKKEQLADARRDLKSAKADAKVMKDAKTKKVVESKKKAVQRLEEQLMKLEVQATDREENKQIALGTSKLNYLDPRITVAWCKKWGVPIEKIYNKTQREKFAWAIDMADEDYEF
# T1 sequence (P11388 whole entry): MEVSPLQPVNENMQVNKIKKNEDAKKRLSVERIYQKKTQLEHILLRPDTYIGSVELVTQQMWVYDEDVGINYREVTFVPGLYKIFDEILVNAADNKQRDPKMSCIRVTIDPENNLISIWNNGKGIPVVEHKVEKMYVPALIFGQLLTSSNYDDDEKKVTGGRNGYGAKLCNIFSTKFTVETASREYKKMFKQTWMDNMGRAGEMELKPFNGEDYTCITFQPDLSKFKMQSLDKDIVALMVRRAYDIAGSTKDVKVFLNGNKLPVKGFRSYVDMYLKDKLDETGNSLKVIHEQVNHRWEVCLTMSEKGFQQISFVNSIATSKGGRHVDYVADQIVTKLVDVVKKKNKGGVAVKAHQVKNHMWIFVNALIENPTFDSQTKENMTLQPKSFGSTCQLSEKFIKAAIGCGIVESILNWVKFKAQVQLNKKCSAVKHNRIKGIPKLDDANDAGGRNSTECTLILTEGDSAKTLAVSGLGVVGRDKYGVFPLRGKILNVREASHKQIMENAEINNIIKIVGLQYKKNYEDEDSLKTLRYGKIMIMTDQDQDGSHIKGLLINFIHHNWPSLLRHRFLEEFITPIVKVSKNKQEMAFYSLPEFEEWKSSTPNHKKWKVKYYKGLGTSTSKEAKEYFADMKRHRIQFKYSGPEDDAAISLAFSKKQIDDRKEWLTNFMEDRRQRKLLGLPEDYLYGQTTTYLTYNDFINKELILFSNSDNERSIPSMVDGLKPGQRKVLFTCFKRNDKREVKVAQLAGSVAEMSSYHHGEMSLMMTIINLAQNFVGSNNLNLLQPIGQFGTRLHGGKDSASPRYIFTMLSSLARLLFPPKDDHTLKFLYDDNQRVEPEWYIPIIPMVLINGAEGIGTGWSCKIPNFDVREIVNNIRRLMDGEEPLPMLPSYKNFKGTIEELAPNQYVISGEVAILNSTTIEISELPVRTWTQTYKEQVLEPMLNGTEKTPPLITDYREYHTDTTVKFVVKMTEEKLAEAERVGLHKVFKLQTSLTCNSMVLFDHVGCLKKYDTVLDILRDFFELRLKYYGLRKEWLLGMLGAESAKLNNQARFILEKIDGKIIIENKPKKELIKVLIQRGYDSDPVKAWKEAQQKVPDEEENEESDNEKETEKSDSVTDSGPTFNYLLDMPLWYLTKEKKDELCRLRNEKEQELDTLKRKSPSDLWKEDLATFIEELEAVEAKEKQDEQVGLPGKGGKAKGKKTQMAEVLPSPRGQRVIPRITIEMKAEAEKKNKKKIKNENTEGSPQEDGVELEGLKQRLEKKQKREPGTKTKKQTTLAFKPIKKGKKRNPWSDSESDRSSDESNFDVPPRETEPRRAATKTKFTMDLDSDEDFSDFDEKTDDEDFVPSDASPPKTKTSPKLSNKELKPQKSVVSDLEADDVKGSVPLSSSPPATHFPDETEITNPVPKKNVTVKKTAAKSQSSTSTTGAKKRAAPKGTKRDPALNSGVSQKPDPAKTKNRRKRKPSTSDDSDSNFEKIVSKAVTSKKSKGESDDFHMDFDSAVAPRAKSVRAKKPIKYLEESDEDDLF
SMILES,IC50 [2],further results
Cc1[nH]c(C(=O)Nc2ccc(C(N)=O)cc2NCCN)c(Cl)c1Cl.Cl,> 100 µM,half-life at 100 µM [1]: > 5 h
Cc1[nH]c(C(=O)Nc2cc(C(=O)O)ccc2OC2CCNCC2)c(Cl)c1Cl,> 100 µM,–
Cc1[nH]c(C(=O)Nc2ccccc2OCc2cccc(C(=O)NC3CCNC3)c2)c(Cl)c1Cl.Cl (centres undefined),6.3 µM,solubility thermodynamic at 24 h [3]: 15 µM; IC50 (K562): 0.57 µM
NCCNC(=O)c1cccc(COc2ccccc2NC(=O)c2cc([N+](=O)[O-])c[nH]2)c1,> 100 µM,–
Cc1[nH]c(C(=O)Nc2cc(C(N)=O)ccc2OC2CCNC2)c(Cl)c1Cl (centres undefined),32 µM,–
Cc1[nH]c(C(=O)Nc2ccc(C(N)=O)cc2OCC(=O)N2CCCC(N)C2)c(Cl)c1Cl (centres undefined),8.3 µM,–
Cc1[nH]c(C(=O)Nc2ccc(C(=O)NC3CCCNC3)cc2OC(C)C)c(Cl)c1Cl.Cl (centres undefined),1.3 µM,half-life at 100 µM [1]: > 5 h; solubility thermodynamic at 24 h [3]: 4.6 µM
Cc1[nH]c(C(=O)Nc2ccc(C(=O)NCC3CCNCC3)cc2OC(C)C)c(Cl)c1Cl.Cl,2.9 µM,solubility thermodynamic at 24 h [3]: 15 µM
Cc1[nH]c(C(=O)Nc2cc(C(N)=O)ccc2OCCN)c(Cl)c1Cl,18 µM,–
Cc1[nH]c(C(=O)Nc2ccc(C(N)=O)cc2OCc2cccc(C(=O)NCCN)c2)c(Cl)c1Cl.Cl,1 µM,half-life at 100 µM [1]: > 5 h
CCc1cnc(C(=O)Nc2ccc(C(N)=O)cc2OC(C)C)[nH]1,> 100 µM,–
Cc1[nH]c(C(=O)Nc2ccc(C(N)=O)cc2N2CCOCC2)c(Cl)c1Cl,> 100 µM,–
Cc1[nH]c(C(=O)Nc2ccccc2OC2CCN(C(=O)OC(C)(C)C)C2)c(Cl)c1Cl (centres undefined),> 100 µM,–
CCc1[nH]c(C(=O)Nc2ccc(C(N)=O)cc2OC(C)C)nc1Cl,6.6 µM,half-life at 100 µM [1]: > 5 h
Cc1[nH]c(C(=O)Nc2ccccc2OCc2cccc(C(=O)NC3CCCNC3)c2)c(Cl)c1Cl.Cl (centres undefined),7.7 µM,half-life at 100 µM [1]: > 5 h; solubility thermodynamic at 24 h [3]: 10 µM; IC50 (HepG2): 0.13 µM; IC50 (K562): 0.19 µM; selectivity ratio [4]: 16; IC50 (MCF7): 0.15 µM; IC50 at 72 h [5]: 2.1 µM; selectivity ratio [6]: 14
Cc1[nH]c(C(=O)Nc2ccccc2OCc2cccc(C(=O)NCCN)c2)cc1F,> 100 µM,–
COC(=O)[C@@H](C)NC(=O)c1ccc(NC(=O)c2[nH]c(C)c(Cl)c2Cl)c(OC2CCNCC2)c1,45 µM,IC50 (HepG2): 9.8 µM; IC50 (MCF7): 8.7 µM
NCCNC(=O)c1cccc(COc2ccccc2NC(=O)c2cc(Cl)c(Cl)[nH]2)c1,76 µM,–
Cc1[nH]c(C(=O)Nc2ccc(C(N)=O)cc2N2CCOC(C)C2)c(Cl)c1Cl (centres undefined),> 100 µM,–
Cc1[nH]c(C(=O)Nc2ccccc2OCc2cccc(C(=O)N3CCCC(N)C3)c2)c(Cl)c1Cl (centres undefined),27 µM,IC50 (HepG2): 1.9 µM; IC50 (K562): 0.77 µM; selectivity ratio [4]: 0.9; IC50 (MCF7): 1.3 µM; IC50 at 72 h [5]: 1.7 µM; selectivity ratio [6]: 1.3
Cc1ccc(C(=O)Nc2ccccc2OCc2cccc(C(=O)NCCN)c2)[nH]1,> 100 µM,–
Cc1[nH]c(C(=O)Nc2ccc(C(N)=O)cc2OC2CCNCC2)c(Cl)c1Cl.Cl,–,half-life at 100 µM [1]: > 5 h
Cc1[nH]c(C(=O)Nc2ccc(C(N)=O)cc2OCc2cccc(C(=O)NCCC(=O)O)c2)c(Cl)c1Cl,3.4 µM,–
Cc1[nH]c(C(=O)Nc2ccc(C(=O)NCC(=O)O)cc2OC(C)C)c(Cl)c1Cl,7.2 µM,IC50 (HepG2): > 50 µM; IC50 (MCF7): > 50 µM
Cc1[nH]c(C(=O)Nc2cc(C(=O)O)ccc2OC2CCN(C(=O)OC(C)(C)C)CC2)c(Cl)c1Cl,38 µM,–
Cc1[nH]c(C(=O)Nc2ccc(O)cc2C(=O)NCc2ccc(C(=O)O)cc2)c(Cl)c1Cl,24 µM,–

SMILES,IC50 [2],further results
O=C(O)c1ccc(CCNC(=O)c2cc(O)ccc2NC(=O)c2cc(Br)c(Br)[nH]2)cc1,22 µM,–
COc1ccc(NC(=O)c2cc(Br)c(Br)[nH]2)c(C(=O)NCc2ccc(C(=O)O)cc2)c1,39 µM,half-life at 100 µM [1]: 4.83 h
Cc1[nH]c(C(=O)Nc2ccccc2OCc2cccc(C(=O)O)c2)c(Cl)c1Cl,29 µM,solubility thermodynamic at 24 h [3]: 2.1 µM
Cc1[nH]c(C(=O)Nc2ccc(C(N)=O)cc2NC(C)C)c(Cl)c1Cl,13 µM,–
CCNC(=O)Nc1ccc(OC2CCNCC2)c(NC(=O)c2[nH]c(C)c(Cl)c2Cl)c1,38 µM,IC50 (HepG2): 38 µM; IC50 (MCF7): 33 µM
NCCNC(=O)c1cccc(COc2ccccc2NC(=O)c2cc(Br)c(Br)[nH]2)c1,45 µM,–
Cc1[nH]c(C(=O)Nc2ccc(C(=O)N3CCCC(N)C3)cc2OC(C)C)c(Cl)c1Cl (centres undefined),32 µM,–
Cc1[nH]c(C(=O)Nc2ccc(C(N)=O)cc2OCC(=O)N2CCCC(NC(=O)OC(C)(C)C)C2)c(Cl)c1Cl (centres undefined),> 100 µM,–
Cc1[nH]c(C(=O)Nc2ccc(C(=O)N3CCNCC3)cc2OC(C)C)c(Cl)c1Cl,> 100 µM,–
Cc1[nH]c(C(=O)Nc2cc(C(N)=O)ccc2OC(C)C)c(Cl)c1Cl,> 100 µM,–
COc1ccc(NC(=O)c2[nH]c(C)c(Cl)c2Cl)c(C(=O)NCc2ccc(C(=O)O)cc2)c1,67 µM,half-life at 100 µM [1]: > 5 h
Cc1[nH]c(C(=O)Nc2ccccc2OCc2cccc(C(N)=O)c2)c(Cl)c1Cl,> 100 µM,–
NS(=O)(=O)c1ccc(CNC(=O)c2cc(O)ccc2NC(=O)c2cc(Br)c(Br)[nH]2)cc1,> 100 µM,–
C[C@]12CC[C@H]3[C@@H](CCC4=CC(=O)CC[C@@]43C)[C@@H]1CC[C@@H]2O [TESTOSTERONE],–,half-life at 100 µM [1]: 0.142 h
Cc1[nH]c(C(=O)Nc2ccccc2OCc2cccc(C(=O)NCCN)c2)c(Cl)c1Cl.Cl,3 µM,half-life at 100 µM [1]: > 5 h; solubility thermodynamic at 24 h [3]: 18 µM; IC50 (HepG2): 15 µM; selectivity ratio [4]: 1.8; IC50 (MCF7): 9 µM; IC50 [7]: 2.3 µM; IC50 at 72 h [5]: 27 µM; selectivity ratio [6]: 3
Cc1[nH]c(C(=O)Nc2ccc(C(=O)N[C@@H](Cc3ccccc3)C(=O)O)cc2OC(C)C)c(Cl)c1Cl,5 µM,IC50 (HepG2): > 50 µM; IC50 (MCF7): > 50 µM
COc1cc(NS(C)(=O)=O)ccc1Nc1c2ccccc2nc2ccccc12 [AMSACRINE],–,IC50 (DNA topoisomerase 1): 74 µM
Cc1[nH]c(C(=O)Nc2ccc(C(=O)NC3CCNCC3)cc2OC(C)C)c(Cl)c1Cl,4.5 µM,–
Cc1[nH]c(C(=O)Nc2ccccc2OC2CCNCC2)c(Cl)c1Cl.Cl,–,half-life at 100 µM [1]: > 5 h
Cc1[nH]c(C(=O)Nc2ccccc2OCc2cccc(C(=O)NCCN)c2)cc1Cl,35 µM,–
Cc1[nH]c(C(=O)Nc2ccccc2OC2CCN(C(=O)OC(C)(C)C)CC2)c(Cl)c1Cl,> 100 µM,–
CCc1nc2nc(Nc3ccc4nc(OCCN5CCOCC5)ccc4c3)nc(NC(C)(C)C)c2[nH]1,0.73 µM,IC50 (HepG2): 11 µM; IC50 (MCF7): 7.7 µM
Cc1[nH]c(C(=O)Nc2ccc(C(N)=O)cc2OCc2cccc(C(=O)NCC(=O)O)c2)c(Cl)c1Cl,3.5 µM,–
COc1ccc(NC(=O)c2[nH]c(C)c(Br)c2Br)c(C(=O)NCCc2ccc(C(=O)O)cc2)c1,25 µM,–
CCc1[nH]c(C(=O)Nc2ccccc2OCc2cccc(C(=O)NCCN)c2)nc1Cl,37 µM,–
